From patent US20250208133A1, “SENESCENT CELL SURFACE MARKERS” (SENS RESEARCH FOUNDATION, priority 2022, published 2025)

Tests used:
Type in all cases: cell-based, human
[1] = test system: non-senescent (NS) IMR-90 cells; assay: xCELLigence RTCA impedance viability assay, non-senescent cells; conditions: 48 hours of treatment with 1 μM
[2] = test system: senescent IMR-90 cells; assay: xCELLigence RTCA impedance viability assay, senescent cells
Description: (§1) Human IMR-90 fibroblasts (ATCC, USA) were treated with 300 nM of doxorubicin hydrochloride (Millipore Sigma, USA; Cat #504042) in DMEM complete media for 24 hours or ionizing radiation (10 Gy X-ray) and maintained in culture. Primary human endothelial cells were treated with 250 nM of doxorubicin in promo cell basal medium supplemented with Growth Medium MV 2 Supplement Pack for 24 hours and maintained in culture. Senescent cells were used 7-13 days following treatment.
For measurement of background values, 50 μl of complete medium was added to E-Plates 96 (Agilent). Cells were seeded in a total of 200 μl of medium per well at a density of 10,000 cells per well. Cell attachment was monitored using the RTCA MP (Agilent) instrument and the RTCA software (Agilent). Media was replaced with media containing either DMSO, vacuolin-1 or apilimod. Cells treated with 0.2% Triton X-100 was used as a 100% dead cell positive control for cytotoxicity assays. After drug addition, impedance measurements were recorded every 15 minutes. All experiments were performed in at least 5 replicates for each dose. Changes in impedance were expressed as a cell index (CI) value, which derives from relative impedance changes corresponding to cellular coverage of the electrode sensors, normalized to baseline impedance values with medium only. To analyze the acquired data, CI values were exported, and percentage of attached cell surface was calculated in relation to positive controls and DMSO-treated cells.
Senescent cells are known to employ several mechanisms to increase their survival. For example, increased expression of the pro-survival BCL-family proteins has been widely studied. In fact, BCL antagonism has been the basis of many senolytic drugs (see, e.g., Zhu, et al., Aging Cell. 2016 June; 15(3):428-35). Vacuolin-1 was used to determine if lysosomal exocytosis is a mechanism for senescent cell survival. Vacuolin-1 is a potent inhibitor of Phosphatidylinositol-3-phosphate 5-kinase type III (PIKfyve), which is a key player in lysosomal exocytosis allowing lysosomes to fuse with the plasma membrane. The viability assay was performed in senescent IMR-90 cells using xCELLigence Real-Time Cell Analysis (RTCA) system that uses label-free cellular impedance to monitor cell health and viability over time.

[3] = test system: senescent IMR-90 fibroblasts; assay: Crystal violet staining cell viability, senescent cells; conditions: 48 hours
Description: as §1
(§2) Cell viability after 48 h of apilimod (1 μM) or vacuolin-1 (1 μM) treatment was estimated by crystal violet. Cells in 6-well cell culture plates (Greiner Bio-One; Cat #657160) were washed twice with PBS, incubated with 4% paraformaldehyde for 15 minutes at room temperature, then stained with 0.25% crystal violet for 10 minutes. Cells were washed with deionized water and imaged, 3 images per well.
(§3) Apilimod is a clinical PIKfyve inhibitor. Apilimod was used to further validate the senolytic effects of PIKfyve inhibitors. […] To further characterize the potent cytotoxic effect of apilimod on non-senescent versus senescent cells, IMR-90 fibroblasts were treated with 1 μM of apilimod. […] Of note, the decrease in viable apilimod-treated non-senescent cells after 48 hours of treatment is likely in part due to a decrease in proliferation rather than viability of apilimod-treated cells.

[4] = test system: non-senescent IMR-90 fibroblasts; assay: Crystal violet staining cell viability, non-senescent cells; conditions: 1 μM, 48 hours
Description: as §2, §3

[5] = as above; conditions: human, non-senescent IMR-90 fibroblasts, non-senescent cells, read-out: cell viability, quantification of adherent cells
Description: as §2, §3

For `Ic1cccc(/C=N/Nc2nc(N3CCOCC3)nc(N(c3ccccc3)c3ccccc3)n2)c1` [vacuolin-1], the “mean normalized cell index” value [1] was 1.2, the “mean normalized cell index” value ([2]; senescent cells, 48 hours of treatment with 1 μM) was 0.4 and the “selective killing of senescent cells by blocking lysosomal exocytosis” value ([2]; senescent vs NS IMR-90 cells, dose response) was “selectively killed senescent IMR-90 cells in a dose-dependent manner”.

With `Cc1cccc(/C=N/Nc2cc(N3CCOCC3)nc(OCCc3ccccn3)n2)c1` [apilimod] the senescent cell survival ([2]; 48 hours of treatment with 1 μM) was “No senescent cells survived”, the senescent cell survival ([2]; 48 hours of treatment with 5 μM) was “No senescent cells survived” and the senescent cell viability ([2]; dose response) was “dose-dependent declines in senescent cell viability”. The “viability of senescent cells, light microscopy of crystal violet-stained cells” value ([3]; 1 μM) was “significant decrease”, the viability at 1 µM ([3]; Homo sapiens, IMR-90, senescent condition, read-out: viable cells, quantification of adherent cells) was 17% and the “non-senescent cell viability, light microscopy of crystal violet-stained cells” value [4] was “no effect”. It also gave a viability at 48 h, 1 µM [5] of 92%.
